Laboratory results: PubChem BioAssay (NCI)
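At the GI50, growth is halved. The concentration for full growth arrest is given as TGI.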

Key:
Assay in all cases: NCI anticancer screen, dose series, 384-well format
EKVX NSCLC = test system: EKVX NSCLC
UACC-62 melanoma = test system: UACC-62 melanoma
LOX IMVI melanoma = test system: LOX IMVI melanoma
HT29 colon = test system: HT29 colon
HOP-92 NSCLC = test system: HOP-92 NSCLC
MALME-3M melanoma = test system: MALME-3M melanoma
HOP-62 NSCLC = test system: HOP-62 NSCLC
IGROV1 ovarian = test system: IGROV1 ovarian
SF-539 CNS = test system: SF-539 CNS
SR leukemia = test system: SR leukemia
OVCAR-3 ovarian = test system: OVCAR-3 ovarian
SN12C renal = test system: SN12C renal
K-562 leukemia = test system: K-562 leukemia
SF-268 CNS = test system: SF-268 CNS
SK-MEL-28 melanoma = test system: SK-MEL-28 melanoma
MDA-MB-468 breast = test system: MDA-MB-468 breast
ACHN renal = test system: ACHN renal
TK-10 renal = test system: TK-10 renal
T-47D breast = test system: T-47D breast
A549 NSCLC = test system: A549 NSCLC
A498 renal = test system: A498 renal
NCI-H522 lung = test system: NCI-H522 lung
UACC-257 melanoma = test system: UACC-257 melanoma
CCRF-CEM leukemia = test system: CCRF-CEM leukemia
HCT-15 colon = test system: HCT-15 colon
OVCAR-8 ovarian = test system: OVCAR-8 ovarian
MCF7 breast = test system: MCF7 breast
NCI-H226 lung = test system: NCI-H226 lung
SK-MEL-5 melanoma = test system: SK-MEL-5 melanoma
RPMI-8226 leukemia = test system: RPMI-8226 leukemia
OVCAR-5 ovarian = test system: OVCAR-5 ovarian
BT-549 breast = test system: BT-549 breast
HS 578T breast = test system: HS 578T breast
MDA-MB-435 melanoma = test system: MDA-MB-435 melanoma
SNB-19 CNS = test system: SNB-19 CNS
NCI-H23 lung = test system: NCI-H23 lung
SF-295 CNS = test system: SF-295 CNS
UO-31 renal = test system: UO-31 renal
HL-60(TB) leukemia = test system: HL-60(TB) leukemia
CAKI-1 renal = test system: CAKI-1 renal
U251 glioblastoma = test system: U251 glioblastoma
MDA-MB-231 breast = test system: MDA-MB-231 breast
COLO 205 colon = test system: COLO 205 colon
SW-620 colon = test system: SW-620 colon
DU-145 prostate = test system: DU-145 prostate
OVCAR-4 ovarian = test system: OVCAR-4 ovarian
PC-3 prostate = test system: PC-3 prostate

C[C@@H](C(=O)Nc1ccc(Cl)cc1)C1CCC(c2ccnc3ccc(F)cc23)CC1 (some centres undefined)
GI50 (EKVX NSCLC): 4.09 µM | TGI (EKVX NSCLC): 18.7 µM | GI50 (UACC-62 melanoma): 14.9 µM | TGI (UACC-62 melanoma): 29.3 µM | GI50 (LOX IMVI melanoma): 8.67 µM | TGI (LOX IMVI melanoma): 21.2 µM | GI50 (HT29 colon): 9.74 µM | TGI (HT29 colon): 23.1 µM | GI50 (HOP-92 NSCLC): 8.04 µM | TGI (HOP-92 NSCLC): 29.4 µM | GI50 (MALME-3M melanoma): 15.3 µM | TGI (MALME-3M melanoma): 37.5 µM | GI50 (HOP-62 NSCLC): 12.8 µM | TGI (HOP-62 NSCLC): 29.5 µM | GI50 (IGROV1 ovarian): 8.55 µM | TGI (IGROV1 ovarian): > 47.7 µM | GI50 (SF-539 CNS): 14.2 µM | TGI (SF-539 CNS): 27.5 µM | GI50 (SR leukemia): 0.584 µM | TGI (SR leukemia): 1.46 µM | GI50 (OVCAR-3 ovarian): 7.15 µM | TGI (OVCAR-3 ovarian): 19.9 µM | GI50 (SN12C renal): 12.7 µM | TGI (SN12C renal): 28.2 µM | GI50 (K-562 leukemia): 3.38 µM | TGI (K-562 leukemia): 13.7 µM | GI50 (SF-268 CNS): 6.42 µM | TGI (SF-268 CNS): 22.7 µM | GI50 (SK-MEL-28 melanoma): 20.6 µM | TGI (SK-MEL-28 melanoma): > 92 µM | GI50 (MDA-MB-468 breast): 2.17 µM | TGI (MDA-MB-468 breast): 8.1 µM | GI50 (ACHN renal): 9.63 µM | TGI (ACHN renal): 41.4 µM | GI50 (TK-10 renal): 11.3 µM | TGI (TK-10 renal): 86.2 µM | GI50 (T-47D breast): 4.42 µM | TGI (T-47D breast): 25.2 µM | GI50 (A549 NSCLC): 6.9 µM | TGI (A549 NSCLC): 66.5 µM | GI50 (A498 renal): 5.31 µM | TGI (A498 renal): 21.1 µM | GI50 (NCI-H522 lung): 3.24 µM | TGI (NCI-H522 lung): 15.9 µM | GI50 (UACC-257 melanoma): 13.7 µM | TGI (UACC-257 melanoma): 31.4 µM | GI50 (CCRF-CEM leukemia): 2.64 µM | TGI (CCRF-CEM leukemia): 7.41 µM | GI50 (HCT-15 colon): 11.8 µM | TGI (HCT-15 colon): 25.6 µM | GI50 (OVCAR-8 ovarian): 10.4 µM | TGI (OVCAR-8 ovarian): 25.8 µM | GI50 (MCF7 breast): 7.97 µM | TGI (MCF7 breast): 25.7 µM | GI50 (NCI-H226 lung): 12.2 µM | TGI (NCI-H226 lung): 28 µM | GI50 (SK-MEL-5 melanoma): 4.31 µM | TGI (SK-MEL-5 melanoma): 16.2 µM | GI50 (RPMI-8226 leukemia): 2.58 µM | TGI (RPMI-8226 leukemia): 7.6 µM | GI50 (OVCAR-5 ovarian): 13 µM | TGI (OVCAR-5 ovarian): 35.3 µM | GI50 (BT-549 breast): 7.14 µM | TGI (BT-549 breast): 20.6 µM | GI50 (HS 578T breast): 12.7 µM | TGI (HS 578T breast): 27.4 µM | GI50 (MDA-MB-435 melanoma): 16.9 µM | TGI (MDA-MB-435 melanoma): 36.7 µM | GI50 (SNB-19 CNS): 17.5 µM | TGI (SNB-19 CNS): 52.8 µM | GI50 (NCI-H23 lung): 3.76 µM | TGI (NCI-H23 lung): 16 µM | GI50 (SF-295 CNS): 10 µM | TGI (SF-295 CNS): 31.1 µM | GI50 (UO-31 renal): 15.8 µM | TGI (UO-31 renal): 83.2 µM | GI50 (HL-60(TB) leukemia): 1.35 µM | TGI (HL-60(TB) leukemia): 2.9 µM | GI50 (CAKI-1 renal): 19.2 µM | TGI (CAKI-1 renal): 54.7 µM | GI50 (U251 glioblastoma): 9.96 µM | TGI (U251 glioblastoma): 26.2 µM | GI50 (MDA-MB-231 breast): 13.3 µM | TGI (MDA-MB-231 breast): 65.1 µM | GI50 (COLO 205 colon): 17.4 µM | TGI (COLO 205 colon): > 62.3 µM | GI50 (SW-620 colon): 8.3 µM | TGI (SW-620 colon): 22.6 µM | GI50 (DU-145 prostate): 8.74 µM | TGI (DU-145 prostate): 33.2 µM | GI50 (OVCAR-4 ovarian): 13.9 µM | TGI (OVCAR-4 ovarian): 50.2 µM | GI50 (PC-3 prostate): 5.72 µM | TGI (PC-3 prostate): 19 µM
